Drawing on patent publication US8436171B2, “Amino substituted pyrazines as inhibitors or protein kinases” (Akinion Pharmaceuticals AB, priority 2008, dated 2013), this text covers IC50 and EC50 for three molecules.

For assay [1], the target named is T1, recombinant human FLT3 (Homo sapiens, UniProt P36888).
T1 construct: N-terminal GST tagged, amino acids 564-end; GST (N); purchased Upstate 14-500
T1 sequence (P36888 564-993 limits assumed): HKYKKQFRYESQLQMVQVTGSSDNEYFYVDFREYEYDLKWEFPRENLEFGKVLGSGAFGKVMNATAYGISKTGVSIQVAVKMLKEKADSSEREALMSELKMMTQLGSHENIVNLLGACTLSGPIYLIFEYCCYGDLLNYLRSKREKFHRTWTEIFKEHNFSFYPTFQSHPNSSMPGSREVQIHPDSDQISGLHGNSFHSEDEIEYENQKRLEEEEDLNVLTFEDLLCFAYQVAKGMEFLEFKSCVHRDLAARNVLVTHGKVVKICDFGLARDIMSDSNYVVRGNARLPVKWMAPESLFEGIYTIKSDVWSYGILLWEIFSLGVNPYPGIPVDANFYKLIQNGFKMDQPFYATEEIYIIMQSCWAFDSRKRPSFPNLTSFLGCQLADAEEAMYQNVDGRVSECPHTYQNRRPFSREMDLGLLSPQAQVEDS
Put plainly: In vitro FLT3 kinase assay (IMAP fluorescence polarization). In kind it is biochemical. The following applies: mean, n = 4-8; ATP 100 μM; FAM-CSKtide 100 nM; read-out: IC50 (nM), typical mean IC50 values determined in the FLT3 kinase assay. The protocol: The compounds according to the invention were evaluated for their inhibition of FLT3 by the following method:
In Vitro FLT3 Kinase Assay
An enzyme inhibition assay for the tyrosine kinase domain of FLT3 was established using a fluorescence polarization technique, Immobilized Metal Ion Affinity-Based Fluorescence Polarization (IMAP) from Molecular Devices.
Briefly: kinase activity is measured by incubating a fluorescent peptide substrate with the kinase domain. After completion of the kinase reaction a binding buffer is added. Upon phosphorylation of the substrate, the fluorescent peptide gains the ability to bind to a metal-coated nanoparticle. When the substrate is bound to the nanoparticle, the rotational is speed of the peptide is reduced, and thus the fluorescence polarization (fp) becomes high. Compounds inhibiting the kinase activity of the enzyme will result in a low degree of phosphorylated substrate and a low fp-signal.
IMAP Buffer kit with Progressive Binding System (Molecular Devices, #R8124): Reaction buffer: 10 mM Tris-HCL pH 7.2 with 10 mM MgCl2, 0.05% NaN3 and 0.01% Tween 20. Prior to use DTT was added to 1 mM DTT final concentration (complete reaction buffer).
Binding solution was prepared from buffer kit according to the manufactures recommendations. Binding Reagent was diluted 1:1500 in 40% Binding buffer A and 60% Binding buffer B.
FLT3 enzyme used was recombinant human FLT3 from Upstate (#14-500) 7.2 U/ml, N-terminal GST tagged, amino acids 564-end.
Substrate peptide used: FAM-CSKtide from Molecular Devices (#R7269) 20 μM, 5FAM-KKKKEEIYFFFG-NH2. […]
• Pipette into 96-well black ½ area plate: • 5 μl compound dilution or vehicle • 5 μl substrate peptide (400 nM) • 5 μl enzyme (0.05 U/ml) or complete reaction buffer for non specific background (NSB) • 5 μl ATP (400 μM) • Cover the plate and incubate at room temperature with gentle agitation II. […] Fluorescence Polarization analysis: • Measure fluorescein using a plate reader (Analyst AD) excitation wave length 485 and emission wave length 530, reading with integration time of 0.1 sec. […]
Background: In fluorescence polarisation assays a small probe gives low polarisation when free and higher when bound to something large.

Assay [2] deals with AML cell-line MV4-11 (FLT3-ITD). As to the kind of experiment: Viability and proliferation assay in AML cell line MV4-11. In kind it is cell-based. The following applies: Homo sapiens; MV4-11 cells, 72 hours, viable cells by flow cytometry; read-out: Cell data MV4-11 (nM), EC50 values determined in AML-cell line. Here is the method: AML cell-line MV4-11 carries the FLT3-internal tandem duplication. This cell-line has been widely used for evaluating the effect of FLT3-kinase inhibitors on viability and proliferation.
Briefly, cells are seeded at a low density into 96-well plates. Serial dilution of compounds is added and the cells are incubated for 72 hours. Total number of viable cells is measured using flow cytometry at the end of treatment, and the effect of the compounds is calculated as % inhibition compared to vehicle treated cells.
All cells were cultured under standard cell culture conditions, at 37° Celsius in an atmosphere of 5% CO2 in 90% humidity.
AML-cell line MV4-11 was cultured in DMEM Glutamax high glucose ([…] glucose) supplemented with 10% Fetal Bovine Serum (FBS) from Invitrogen. Cells were subcultured twice weakly, growing to a density of approx 2 million cells per ml prior to subcultivation.
For viability determination, 3000-5000 cells were seeded in 50 microliter culture medium into a 96-well plate. Serial dilutions 1:3 of compounds from 10 mM DMSO stock were made in serumfree culture medium supplemented with penicillin and streptomycin. 50 microliter of the serial dilutions were added to the cell-suspension. The final concentration of compounds was from 5 micromolar to 0.8 nM, or from 500 nM to 0.08 nM respectively. The DMSO concentration was kept constant at 0.05%.
At the end of the treatment, 100 microliter viability reagent (Guava ViaCount) was added to each well and number of cells and viability was determined using flow cytometry (Guava 96-well ViaCount assay). Typically the vehicle treated (0.05% DMSO) cell-line cells had doubled three times during the experiment.
% Survival was calculated compared to the vehicle treated cells at the end of experiment. EC50 values were determined using the equation (A+((B−A)/(1+((C/x)^D)))) where A equals min, B equals max, C equals EC50 and D equals Hill slope.
In general terms: Flow cytometry measures light scatter and fluorescence of single cells or particles in a stream.

Where a name gives a salt, the structure may show the parent alone.

As for `Nc1ncc(-c2ccncc2)nc1NCCc1c[nH]c2ccccc12` [Example 15, N3-[2-(1H-Indol-3-yl)ethyl]-5-pyridin-4-ylpyrazine-2,3-diamine, trifluoroacetate], the IC50 in assay [1] was 60 nM. Also, in assay [2], the EC50 came out at 184 nM.
For `NC(=O)c1ccc(-c2cncc(N[C@H]3CC[C@H](O)CC3)n2)cc1` [Example 28, 4-{6-[(trans-4-Hydroxycyclohexyl)amino]pyrazin-2-yl}benzamide, trifluoroacetate], in that order: 159 nM and 178 nM.
For `c1cc(-c2cncc(Nc3ccc4cc[nH]c4c3)n2)ccn1` [Example 32, N-(6-Pyridin-4-ylpyrazin-2-yl)-1H-indol-6-amine], in that order: 560 nM and 373 nM.

By IC50 is commonly meant the midpoint of a concentration-inhibition curve. By EC50 is commonly meant the midpoint of the concentration-response curve.
